From patent EP1165534B1, “BENZOYLGUANIDINE DERIVATIVES WITH ADVANTAGEOUS PROPERTIES, METHOD FOR PRODUCING THEM AND THEIR USE IN THE PRODUCTION OF MEDICAMENTS” (Boehringer Ingelheim Pharma GmbH & Co.KG, priority 1998, dated 2000) come the findings set out here.

Counter-ions that a name gives are not always drawn. Like-named read-outs stand apart in the source and are kept apart here.

One data set deals with T1, Na^+/H^+-Austauscher (Homo sapiens, UniProt P19634).
T1 construct: HT-29-Zellen werden bei 37°C, 5% CO2 in Wachstumsmedium inkubiert; endogenous in cells; host or cells: HT-29 human colon cancer cells
Put plainly: Inhibition of the Na+/H+ exchanger in human colon cancer cells (HT-29), BCECF fluorescence pH measurement. It is filed as cell-based. The note with it: HT-29-Zellen; 4 min, 37°C, pH 7.0. Here is the method:
Inhibition des Na^+/H^+-Austauschers in humanen Darmkrebszellen (HT-29):
HT-29-Zellen werden bei 37°C, 5% CO2 in Wachstumsmedium inkubiert. Nach 3-5 Tagen wurde das Wachstumsmedium entfernt, die Zellen gewaschen und mit 7.5 µM BCECF-AM (pH-sensitiver Fluoreszenzfarbstoff) bei 37°C ohne CO2 beladen. Nach 30 min werden die Zellen gewaschen und mit folgendem Medium angesäuert: 70 mM Cholinchlorid, 20 mM NH4Cl, 1 mM MgCl2, 1.8 mM CaCl2, 5 mM Glucose und 15 mM HEPES, pH 7.5.
Nach 6 min Inkubation bei 37°C ohne CO2 werden die Zellen gewaschen und für 5 min mit Waschmedium inkubiert: 120 mM Cholinchlorid, 5 mM KCl, 1 mM MgCl2, 1.8 mM CaCl2, 5 mM Glucose und 15 mM MOPS, pH 7.0.
Das Waschmedium wird entfernt und Kontrollmedium mit oder ohne Testverbindung wird zugegeben: 120 mM NaCl, 5 mM KCl, 1 mM MgCl2, 1.8 mM CaCl2, 5 mM Glucose, 15 mM MOPS, pH 7.0.
Die Zellen werden 4 min bei 37°C ohne CO2 inkubiert und fluorimetrisch (CytoFluor 2350) vermessen. Die Fluoreszenz des Farbstoffes BCECF wird bei den Anregungswellenlängen 485 nm (pH-sensitiv) und 440 nm (nicht pH-sensitiv) und bei der Emissionswellenlänge 530 nm gemessen. Der cytoplasmatische pH wird aus dem Verhältnis der Fluoreszenzen bei 485 und 440 nm berechnet. Das Fluoreszenzverhältnis wird durch Messung des Fluoreszenzsignals nach Äquilibrierung von externem und internem pH mit Nigericin kalibriert.

A short description of data set [1]: Pharmacokinetics in male rats after i.v. and oral administration. The settings on record: not fasted; for F: non-compartmental analysis (TopFit); for half-life: rat, plasma. Type of data set: in vivo, Ratten. Here is the method: Pharmakokinetische Daten:
Für die Untersuchungen wurden männliche, ca. 200 g schwere Ratten (nicht nüchtern), verwendet. Zur intravenösen und oralen Applikation werden die Substanzen in einer angesäuerten wässerigen Lösung (pH 3) gelöst. Einzelne Bolus Injektionen (0.5 mg/kg i.v., 2.5 mg/kg p.o.) werden in die Schwanzvene injiziert (0.2 ml/200g) oder über eine Kanüle in den Magen gegeben (1 ml/200 g). Die Applikationslösungen werden analysiert, um die applizierte Dosis zu bestätigen. 0.5 ml Aliquots Blut werden vom retro-orbitalen Venenplexus unter kurzer Halothan-Betäubung mit heparinisierten Glass-Kapillaren nach folgendem Schema entnommen: • nach i.v. Applikation: 5 min, 15 min, 30 min, 1 h, 2 h, 4 h, 6 h, 8h; • nach oraler Applikation: 15 min, 1 h, 2 h, 4 h, 6 h, 8 h, 24 h, 32 h.
Die Proben werden zentrifugiert und das Plasma bis zur Analyse bei - 20°C gelagert. Die Proben-Vorbereitung erfolgt durch flüssig-flüssig Extraktion mit einem internen Standard. Die Plasmaextrakte werden mit Reversed Phase HPLC, gekoppelt mit einem Elektrospray-Tandem-Massenspektrometer analysiert. Die pharmakokinetischen Daten werden aus den entsprechenden PlasmaKonzentrationen durch Kompartiment-freie Analyse mit dem TopFit Programm bestimmt (Heinzel, G., Woloszczak, R., Thomann, P. TopFit 2.0 - Pharmacokinetic and pharmacodynamic data analysis, system for the PC, Gustav Fischer Verlag, Stuttgart, Jena, New York, 1993).

Where [2] appears, read: iv, 0.5 mg/kg i.v., read-out: t1/2 (i.v.) (converted).
Where [3] appears, read: po, 2.5 mg/kg p.o., read-out: t1/2 (p.o.) (converted).

T1 sequence (P19634 whole entry): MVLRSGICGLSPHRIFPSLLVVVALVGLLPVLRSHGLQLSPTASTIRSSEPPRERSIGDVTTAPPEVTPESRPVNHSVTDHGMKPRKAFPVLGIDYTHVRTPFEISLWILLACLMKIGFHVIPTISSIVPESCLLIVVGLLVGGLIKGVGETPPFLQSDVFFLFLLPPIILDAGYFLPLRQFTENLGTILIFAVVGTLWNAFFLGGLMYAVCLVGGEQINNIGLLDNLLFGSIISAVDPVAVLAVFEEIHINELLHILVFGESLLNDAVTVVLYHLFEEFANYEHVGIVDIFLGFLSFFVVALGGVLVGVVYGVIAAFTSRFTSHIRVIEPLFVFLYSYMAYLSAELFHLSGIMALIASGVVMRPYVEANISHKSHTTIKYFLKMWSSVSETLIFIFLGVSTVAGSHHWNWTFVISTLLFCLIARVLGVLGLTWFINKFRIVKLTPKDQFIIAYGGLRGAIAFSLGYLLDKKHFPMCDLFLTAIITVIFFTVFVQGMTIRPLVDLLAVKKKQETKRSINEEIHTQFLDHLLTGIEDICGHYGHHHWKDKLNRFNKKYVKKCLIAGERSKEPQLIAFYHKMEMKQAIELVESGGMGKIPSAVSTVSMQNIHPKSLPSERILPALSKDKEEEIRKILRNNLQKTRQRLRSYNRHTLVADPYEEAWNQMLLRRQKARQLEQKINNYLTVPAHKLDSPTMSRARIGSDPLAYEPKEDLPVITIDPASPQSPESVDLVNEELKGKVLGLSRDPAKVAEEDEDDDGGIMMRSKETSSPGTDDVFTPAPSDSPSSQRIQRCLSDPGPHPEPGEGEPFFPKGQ

The term IC50 denotes the point on the concentration scale where inhibition reaches its midpoint. The low end stands for higher potency, the high end for lower potency. The compound `COc1cccc(C(=O)N2CCN(c3ccc(C(=O)NC(=N)N)cc3C(F)(F)F)CC2)c1` [Beispiel 1, 4-(4-(3-Methoxyphenylcarbonyl)-1-piperazinyl)-3-trifluormethylbenzoylguanidin-hydrochlorid] registered an IC50 against Na^+/H^+-Austauscher of 76 nM.
Regarding `N=C(N)NC(=O)c1ccc(N2CCN(C(=O)c3ccc[nH]3)CC2)c(C(F)(F)F)c1` [Beispiel 2, 4-(4-(2-Pyrrolylcarbonyl)-1-piperazinyl)-3-trifluormethylbenzoylguanidin-methansulfonat], the F in data set [1] (0.5 mg/kg i.v., 2.5 mg/kg p.o.) came to 63. The half-life was 1.3 h in data set [1] (setting [2]) and 5 h in data set [1] (setting [3]).
Consider `N=C(N)NC(=O)c1ccc(N2CCN(C(=O)c3ccc(F)cc3)CC2)c(C(F)(F)F)c1` [Beispiel 3, 4-(4-(4-Fluorphenylcarbonyl)-1-piperazinyl)-3-trifluormethylbenzoylguanidin-methansulfonat], for which, on Na^+/H^+-Austauscher, inhibition was half-maximal at 38 nM (IC50). The compound also gave a F in data set [1] (0.5 mg/kg i.v., 2.5 mg/kg p.o.) of 71. The half-life was 3.1 h in data set [1] (setting [2]) and 5.4 h in data set [1] (setting [3]).
`COc1ccccc1C(=O)N1CCN(c2ccc(C(=O)NC(=N)N)cc2C(F)(F)F)CC1` [Beispiel 4, 4-(4-(2-Methoxyphenylcarbonyl)-1-piperazinyl)-3-trifluormethylbenzoylguanidin-hydrochlorid] gave an IC50 at Na^+/H^+-Austauscher of 84 nM.
`N=C(N)NC(=O)c1ccc(N2CCN(C(=O)c3cccc(C(F)(F)F)c3)CC2)c(C(F)(F)F)c1` [Beispiel 5, 4-(4-(3-Trifluormethylphenylcarbonyl)-1-piperazinyl)-3-trifluormethylbenzoylguanidin-hydrochlorid] yielded an IC50 at Na^+/H^+-Austauscher of 23 nM. This compound registered a F in data set [1] (0.5 mg/kg i.v., 2.5 mg/kg p.o.) of 58. In addition, the results for the half-life in data set [1] (setting [2]) and in data set [1] (setting [3]) were 5.4 h and 7.5 h, respectively.
Consider `N=C(N)NC(=O)c1ccc(N2CCN(C(=O)c3ccco3)CC2)c(C(F)(F)F)c1` [Beispiel 7, 4-(4-(2-Furylcarbonyl)-1-piperazinyl)-3-trifluormethyl-benzoylguanidinmethansulfonat], for which the midpoint of inhibition on Na^+/H^+-Austauscher, the IC50, lay at 84 nM.
With `Cc1cccc(C(=O)N2CCN(c3ccc(C(=O)NC(=N)N)cc3C(F)(F)F)CC2)c1` [Beispiel 8, 4-(4-(3-Methylphenylcarbonyl)-1-piperazinyl)-3-trifluormethylbenzoylguanidin-methansulfonat], on Na^+/H^+-Austauscher, the IC50 turned out to be 61 nM.
In turn, `N=C(N)NC(=O)c1ccc(N2CCN(C(=O)c3ccccn3)CC2)c(C(F)(F)F)c1` [Beispiel 10, 4-(4-(2-Pyridylcarbonyl)-1-piperazinyl)-3-trifluormethyl-benzoylguanidindimethansulfonat] gave an IC50 against Na^+/H^+-Austauscher of 79 nM.
